According to ChEMBL document CHEMBL3885861, “Open TG-GATES”:

Organism: Rattus norvegicus
Test: Open TG-GATES - Regimen: Daily Repeat
Type: toxicity, organism-based, Sprague-Dawley
Parameters: regimen Daily Repeat, gender Male, age 6 weeks
Conditions: in vivo, po, route gavage; for TP / gamma-GTP / ALP / ALT / AST / BUN / CRE / Cl / DBIL / GLC / IP / K / LDH / Na / PL / RALB / TBIL / TC / TG / Ca: tissue Plasma; for APTT / Bas / Eos / Fbg / Hb / Ht / Lym / MCH / MCHC / MCV / Mono / Neu / PT / Plat / RBC / Ret / WBC: tissue Blood; for KIDNEY_L / KIDNEY_R / KIDNEY_TOTAL: tissue Kidney; for LIVER: tissue Liver
[1] = 300 mg/kg, […], dose level Middle, time 28 day
[2] = 1000 mg/kg, 72 h, dose level High, time 3 day
[3] = 1000 mg/kg, […], dose level High, time 7 day
[4] = 1000 mg/kg, […], dose level High, time 14 day
[5] = 1000 mg/kg, […], dose level High, time 28 day

Compound: COC(=O)C1=C(C)NC(C)=C(C(=O)OC)C1c1ccccc1[N+](=O)[O-] [NIFEDIPINE]
- TP [1]: 6.1 g/dL
- gamma-GTP [1]: 1 IU/L
- TERMINAL_BW [2]: 202 g
- APTT [2]: 21.7 s
- Bas [2]: 0%
- Eos [2]: 0.8%
- Fbg [2]: 252.6 mg/dL
- Hb [2]: 14 g/dL
- Ht [2]: 42.2%
- Lym [2]: 76.8%
- MCH [2]: 20.5 pg
- MCHC [2]: 33.2%
- MCV [2]: 61.8 fL
- Mono [2]: 3.2%
- Neu [2]: 18.2%
- PT [2]: 14.1 s
- Plat [2]: 134.4 x10_4/uL
- RBC [2]: 683.2 x10_4/ul
- Ret [2]: 7.3%
- WBC [2]: 97.2 x10_2/uL
- KIDNEY_L [2]: 0.9 g
- KIDNEY_R [2]: 0.9 g
- KIDNEY_TOTAL [2]: 1.7 g
- ALP [2]: 1290.2 IU/L
- ALT [2]: 41.6 IU/L
- AST [2]: 67.6 IU/L
- BUN [2]: 14 mg/dL
- CRE [2]: 0.2 mg/dL
- Cl [2]: 107.8 meq/L
- DBIL [2]: 0.016 mg/dL
- GLC [2]: 153 mg/dL
- IP [2]: 6.1 mg/dL
- K [2]: 4.1 meq/L
- LDH [2]: 69.6 IU/L
- Na [2]: 143.6 meq/L
- PL [2]: 123 mg/dL
- RALB [2]: 2.5 g/dL
- TBIL [2]: 0.032 mg/dL
- TC [2]: 67.2 mg/dL
- TG [2]: 54 mg/dL
- TP [2]: 5.3 g/dL
- gamma-GTP [2]: 0.8 IU/L
- TERMINAL_BW [3]: 238.1 g
- TERMINAL_BW [4]: 309.6 g
- TERMINAL_BW [5]: 388.3 g
- APTT [3]: 16.8 s
- Bas [3]: 0.4%
- Eos [3]: 0.8%
- Fbg [3]: 253.4 mg/dL
- Hb [3]: 14.1 g/dL
- Ht [3]: 42.6%
- Lym [3]: 71.4%
- MCH [3]: 20.2 pg
- MCHC [3]: 33.1%
- MCV [3]: 61 fL
- Mono [3]: 2.8%
- Neu [3]: 23.8%
- PT [3]: 14.2 s
- Plat [3]: 142.6 x10_4/uL
- RBC [3]: 701.2 x10_4/ul
- Ret [3]: 5.9%
- WBC [3]: 121.8 x10_2/uL
- APTT [4]: 21.1 s
- Bas [4]: 0.4%
- Eos [4]: 0.6%
- Fbg [4]: 267.4 mg/dL
- Hb [4]: 14.3 g/dL
- Ht [4]: 42.8%
- Lym [4]: 73.8%
- MCH [4]: 20.6 pg
- MCHC [4]: 33.5%
- MCV [4]: 61.4 fL
- Mono [4]: 3%
- Neu [4]: 21.4%
- PT [4]: 13.8 s
- Plat [4]: 120.3 x10_4/uL
- RBC [4]: 697.2 x10_4/ul
- Ret [4]: 5.8%
- WBC [4]: 117.1 x10_2/uL
- APTT [5]: 21.7 s
- Bas [5]: 0%
- Eos [5]: 0.8%
- Fbg [5]: 252.6 mg/dL
- Hb [5]: 14 g/dL
- Ht [5]: 42.2%
- Lym [5]: 76.8%
- MCH [5]: 20.5 pg
- MCHC [5]: 33.2%
- MCV [5]: 61.8 fL
- Mono [5]: 3.2%
- Neu [5]: 18.2%
- PT [5]: 14.1 s
- Plat [5]: 134.4 x10_4/uL
- RBC [5]: 683.2 x10_4/ul
- Ret [5]: 7.3%
- WBC [5]: 97.2 x10_2/uL
- KIDNEY_L [3]: 1 g
- KIDNEY_R [3]: 0.9 g
- KIDNEY_TOTAL [3]: 1.9 g
- KIDNEY_L [4]: 1.2 g
- KIDNEY_R [4]: 1.2 g
- KIDNEY_TOTAL [4]: 2.4 g
- KIDNEY_L [5]: 1.4 g
- KIDNEY_R [5]: 1.3 g
- KIDNEY_TOTAL [5]: 2.7 g
- LIVER [3]: 12.1 g
- LIVER [4]: 15.5 g
- LIVER [5]: 17.5 g
- ALP [3]: 1072.4 IU/L
- ALT [3]: 40.4 IU/L
- AST [3]: 68.2 IU/L
- BUN [3]: 15 mg/dL
- CRE [3]: 0.2 mg/dL
- Cl [3]: 105.8 meq/L
- DBIL [3]: 0.016 mg/dL
- GLC [3]: 155.6 mg/dL
- IP [3]: 6.4 mg/dL
- K [3]: 3.9 meq/L
- LDH [3]: 86 IU/L
- Na [3]: 144.2 meq/L
- PL [3]: 129 mg/dL
- RALB [3]: 2.7 g/dL
- TBIL [3]: 0.028 mg/dL
- TC [3]: 68.8 mg/dL
- TG [3]: 70.6 mg/dL
- TP [3]: 5.7 g/dL
- gamma-GTP [3]: 1 IU/L
- ALP [4]: 1620.8 IU/L
- ALT [4]: 41.6 IU/L
- AST [4]: 66.6 IU/L
- BUN [4]: 18.6 mg/dL
- CRE [4]: 0.2 mg/dL
- Ca [4]: 11 mg/dL
- Cl [4]: 104.2 meq/L
- DBIL [4]: 0.012 mg/dL
- GLC [4]: 172.8 mg/dL
- IP [4]: 7.3 mg/dL
- K [4]: 4 meq/L
- LDH [4]: 51 IU/L
- Na [4]: 143.4 meq/L
- PL [4]: 161 mg/dL
- RALB [4]: 2.8 g/dL
- TBIL [4]: 0.018 mg/dL
- TC [4]: 84.2 mg/dL
- TG [4]: 101.8 mg/dL
- TP [4]: 5.9 g/dL
- gamma-GTP [4]: 1 IU/L
- ALP [5]: 975.4 IU/L
- ALT [5]: 40.2 IU/L
- AST [5]: 64.4 IU/L
- BUN [5]: 18.2 mg/dL
- CRE [5]: 0.3 mg/dL
- Ca [5]: 10.3 mg/dL
- Cl [5]: 106.6 meq/L
- DBIL [5]: 0.012 mg/dL
- GLC [5]: 162.8 mg/dL
- IP [5]: 5.8 mg/dL
- K [5]: 3.7 meq/L
- LDH [5]: 62.8 IU/L
- Na [5]: 144.4 meq/L
- PL [5]: 144 mg/dL
- RALB [5]: 2.7 g/dL
- TBIL [5]: 0.028 mg/dL
- TC [5]: 73.6 mg/dL
- TG [5]: 115.4 mg/dL
- TP [5]: 6 g/dL
- gamma-GTP [5]: 1 IU/L
